# Test results taken from publication PMC5218480 (PLoS ONE, 2017).
# System: MV-4-11 cells
# Experiment: Gene expression microarray analysis (Affymetrix PrimeView) and GSEA
# Assay type: cell-based, human
# Parameters: RFU PODN (11730768_x_at) / Fold change /veh PODN (11730768_x_at) / RFU LINC00158 (11744669_a_at) / Fold change /veh LINC00158 (11744669_a_at) / RFU DUSP10 (11751237_a_at) / Fold change /veh DUSP10 (11751237_a_at) / RFU ID3 (11757404_x_at) / Fold change /veh ID3 (11757404_x_at) / RFU PLEKHG5 (11737974_s_at) / Fold change /veh PLEKHG5 (11737974_s_at) / RFU LRRC4B (11730491_at) / Fold change /veh LRRC4B (11730491_at) / RFU GIMAP4 (11747438_a_at) / Fold change /veh GIMAP4 (11747438_a_at) / RFU KRT8 (11758183_x_at) / Fold change /veh KRT8 (11758183_x_at) / RFU CNN1 (11734310_a_at) / Fold change /veh CNN1 (11734310_a_at) / RFU VPS37D (11726825_at) / Fold change /veh VPS37D (11726825_at) / RFU C10orf10 (11716522_x_at) / Fold change /veh C10orf10 (11716522_x_at) / RFU KIR2DL2 /// KIR2DL4 /// KIR2DL5A /// KIR2DL5B /// KIR2DS1 /// KIR2DS2 /// KIR2DS3 /// KIR2DS4 /// KIR3DL3 /// KIR3DL3 /// KIR3DS1 (11738374_at) / Fold change /veh KIR2DL2 /// KIR2DL4 /// KIR2DL5A /// KIR2DL5B /// KIR2DS1 /// KIR2DS2 /// KIR2DS3 /// KIR2DS4 /// KIR3DL3 /// KIR3DL3 /// KIR3DS1 (11738374_at) / RFU C1QL1 (11718748_at) / Fold change /veh C1QL1 (11718748_at) / RFU TMPRSS4 (11747572_a_at) / Fold change /veh TMPRSS4 (11747572_a_at) / RFU HAMP (11756126_x_at) / Fold change /veh HAMP (11756126_x_at) / RFU RNFT2 (11725882_a_at) / Fold change /veh RNFT2 (11725882_a_at) / RFU NR4A2 (11747474_a_at) / Fold change /veh NR4A2 (11747474_a_at) / RFU ABCC12 (11746883_a_at) / Fold change /veh ABCC12 (11746883_a_at) / RFU TMEM136 (11760407_x_at) / Fold change /veh TMEM136 (11760407_x_at) / RFU CLDN22 /// WWC2 (11732394_at) / Fold change /veh CLDN22 /// WWC2 (11732394_at) / RFU HLA-DPB1 (11760878_x_at) / Fold change /veh HLA-DPB1 (11760878_x_at) / RFU SPINT1 (11716480_a_at) / Fold change /veh SPINT1 (11716480_a_at) / RFU GAP43 (11754022_s_at) / Fold change /veh GAP43 (11754022_s_at) / RFU A4GNT (11735810_at) / Fold change /veh A4GNT (11735810_at) / RFU PRB3 (11715151_x_at) / Fold change /veh PRB3 (11715151_x_at) / RFU TUBB4B (11761932_at) / Fold change /veh TUBB4B (11761932_at) / RFU CAPN14 (11732068_a_at) / Fold change /veh CAPN14 (11732068_a_at) / RFU TMCC2 (11721928_a_at) / Fold change /veh TMCC2 (11721928_a_at) / RFU IRGQ (11745062_a_at) / Fold change /veh IRGQ (11745062_a_at) / RFU FAM174B (11720279_a_at) / Fold change /veh FAM174B (11720279_a_at) / RFU TMPRSS4 (11748680_a_at) / Fold change /veh TMPRSS4 (11748680_a_at) / RFU FAM212B (11763350_a_at) / Fold change /veh FAM212B (11763350_a_at) / RFU PLEKHG5 (11743358_a_at) / Fold change /veh PLEKHG5 (11743358_a_at) / RFU ZSCAN30 (11745921_a_at) / Fold change /veh ZSCAN30 (11745921_a_at) / RFU CMKLR1 (11741424_a_at) / Fold change /veh CMKLR1 (11741424_a_at) / RFU LOC101060620 /// MAPK8IP1 (11723275_at) / Fold change /veh LOC101060620 /// MAPK8IP1 (11723275_at) / RFU SPTSSB (11747773_x_at) / Fold change /veh SPTSSB (11747773_x_at) / RFU PRSS12 (11739890_at) / Fold change /veh PRSS12 (11739890_at) / RFU BIN1 (11741810_x_at) / Fold change /veh BIN1 (11741810_x_at) / RFU WNT11 (11732464_a_at) / Fold change /veh WNT11 (11732464_a_at) / RFU C10orf10 (11716521_a_at) / Fold change /veh C10orf10 (11716521_a_at) / RFU C5orf56 (11738089_at) / Fold change /veh C5orf56 (11738089_at) / RFU CYB561 (11721691_x_at) / Fold change /veh CYB561 (11721691_x_at) / RFU ANKRD19P (11752326_a_at) / Fold change /veh ANKRD19P (11752326_a_at) / RFU OR2T12 /// OR2T33 /// OR2T8 (11738714_s_at) / Fold change /veh OR2T12 /// OR2T33 /// OR2T8 (11738714_s_at) / RFU VCAN (11748164_a_at) / Fold change /veh VCAN (11748164_a_at) / RFU JSRP1 (11732532_at) / Fold change /veh JSRP1 (11732532_at) / RFU KRTAP10-11 (11738290_x_at) / Fold change /veh KRTAP10-11 (11738290_x_at) / RFU MYO3A (11730013_a_at) / Fold change /veh MYO3A (11730013_a_at) / RFU EBF3 (11725865_a_at) / Fold change /veh EBF3 (11725865_a_at) / RFU CAMK2N1 (11719241_x_at) / Fold change /veh CAMK2N1 (11719241_x_at) / RFU C5orf56 (11738088_a_at) / Fold change /veh C5orf56 (11738088_a_at) / RFU OLFML3 (11715873_a_at) / Fold change /veh OLFML3 (11715873_a_at) / RFU LOC100653217 /// NTM (11731650_a_at) / Fold change /veh LOC100653217 /// NTM (11731650_a_at) / RFU MAPK11 (11762145_a_at) / Fold change /veh MAPK11 (11762145_a_at) / RFU FIZ1 (11724087_x_at) / Fold change /veh FIZ1 (11724087_x_at) / RFU OASL (11726364_x_at) / Fold change /veh OASL (11726364_x_at) / RFU SOX15 (11748057_x_at) / Fold change /veh SOX15 (11748057_x_at) / RFU CD79A (11719716_a_at) / Fold change /veh CD79A (11719716_a_at) / RFU HIST1H1D (11736915_at) / Fold change /veh HIST1H1D (11736915_at) / RFU CASKIN2 (11723855_a_at) / Fold change /veh CASKIN2 (11723855_a_at) / RFU LOC730098 (11760151_x_at) / Fold change /veh LOC730098 (11760151_x_at) / RFU OR4N2 (11742367_at) / Fold change /veh OR4N2 (11742367_at) / RFU PRRT2 (11749266_a_at) / Fold change /veh PRRT2 (11749266_a_at) / RFU SNX32 (11753110_a_at) / Fold change /veh SNX32 (11753110_a_at) / RFU CDHR5 (11726645_a_at) / Fold change /veh CDHR5 (11726645_a_at) / RFU RCAN1 (11760418_a_at) / Fold change /veh RCAN1 (11760418_a_at) / RFU FAM167A (11723789_a_at) / Fold change /veh FAM167A (11723789_a_at) / RFU FAM26E (11764081_at) / Fold change /veh FAM26E (11764081_at) / RFU ISYNA1 (11749810_s_at) / Fold change /veh ISYNA1 (11749810_s_at) / RFU ACY1 (11761880_at) / Fold change /veh ACY1 (11761880_at) / RFU 11764098_at / Fold change /veh 11764098_at / RFU SAMD14 (11745864_x_at) / Fold change /veh SAMD14 (11745864_x_at) / RFU NPB (11741838_a_at) / Fold change /veh NPB (11741838_a_at) / RFU TMPRSS6 (11731388_a_at) / Fold change /veh TMPRSS6 (11731388_a_at) / RFU KRTAP10-2 (11738614_at) / Fold change /veh KRTAP10-2 (11738614_at) / RFU ARHGAP8 /// PRR5-ARHGAP8 (11727945_x_at) / Fold change /veh ARHGAP8 /// PRR5-ARHGAP8 (11727945_x_at) / RFU KRTAP5-7 /// NADSYN1 (11734609_at) / Fold change /veh KRTAP5-7 /// NADSYN1 (11734609_at) / RFU RASL12 (11751679_a_at) / Fold change /veh RASL12 (11751679_a_at) / RFU CDKN2B (11736163_a_at) / Fold change /veh CDKN2B (11736163_a_at) / RFU PRF1 (11729649_at) / Fold change /veh PRF1 (11729649_at) / RFU, ZNF638 /// ZNF638-IT1 / Fold change vs veh, ZNF638 /// ZNF638-IT1 / RFU, PANK3 / Fold change vs veh, PANK3 / RFU, SH3YL1 / Fold change vs veh, SH3YL1 / RFU, ZEB2 / Fold change vs veh, ZEB2 / RFU, NRIP1 / Fold change vs veh, NRIP1 / RFU, PTTG1IP / Fold change vs veh, PTTG1IP / RFU, CAPN2 / Fold change vs veh, CAPN2 / RFU, MED14 / Fold change vs veh, MED14 / RFU, SNORA58 / Fold change vs veh, SNORA58 / RFU, C1orf63 / Fold change vs veh, C1orf63 / RFU, LRRFIP1 / Fold change vs veh, LRRFIP1 / RFU, NDUFAF7 / Fold change vs veh, NDUFAF7 / RFU, SLC12A2 / Fold change vs veh, SLC12A2 / RFU, IBTK / Fold change vs veh, IBTK / RFU, ESF1 / Fold change vs veh, ESF1 / Fold change vs veh, TMEM50B / RFU, TAOK1 / Fold change vs veh, TAOK1 / RFU, ACBD3 / Fold change vs veh, ACBD3 / RFU, TMA16 / Fold change vs veh, TMA16 / RFU, RWDD3 / Fold change vs veh, RWDD3 / RFU, BCAT1 / Fold change vs veh, BCAT1 / RFU, EDEM3 / Fold change vs veh, EDEM3 / RFU, TMEM33 / Fold change vs veh, TMEM33 / RFU, WDR75 / Fold change vs veh, WDR75 / RFU, AHCTF1 / Fold change vs veh, AHCTF1 / RFU, TFRC / Fold change vs veh, TFRC / RFU, ZDHHC17 / Fold change vs veh, ZDHHC17 / RFU, NOM1 / Fold change vs veh, NOM1 / RFU, ARL8B / Fold change vs veh, ARL8B / RFU, ZBTB11 / Fold change vs veh, ZBTB11 / RFU, TAMM41 / Fold change vs veh, TAMM41 / RFU, KIAA1704 /// LOC100996395 / Fold change vs veh, KIAA1704 /// LOC100996395 / RFU, ING1 / Fold change vs veh, ING1 / RFU, TRMT61B / Fold change vs veh, TRMT61B / RFU, FUBP3 / Fold change vs veh, FUBP3 / RFU, TP53 / Fold change vs veh, TP53 / RFU, TNKS2 / Fold change vs veh, TNKS2 / RFU, ZFP14 / Fold change vs veh, ZFP14 / RFU, ACTR2 / Fold change vs veh, ACTR2 / RFU, PPP3R1 / Fold change vs veh, PPP3R1 / RFU, PIK3R1 / Fold change vs veh, PIK3R1 / RFU, HNRNPA1 / Fold change vs veh, HNRNPA1 / RFU, RNF170 / Fold change vs veh, RNF170 / RFU, ZNF28 / Fold change vs veh, ZNF28 / RFU, RNGTT / Fold change vs veh, RNGTT / RFU, OGT / Fold change vs veh, OGT / RFU, BRD1 / Fold change vs veh, BRD1 / RFU, MARS / Fold change vs veh, MARS / RFU, ZNF655 / Fold change vs veh, ZNF655 / RFU, FAHD1 / Fold change vs veh, FAHD1 / RFU, BDP1 / Fold change vs veh, BDP1 / RFU, LRRCC1 / Fold change vs veh, LRRCC1 / RFU, ARID1A / Fold change vs veh, ARID1A / RFU, ZNF146 / Fold change vs veh, ZNF146 / RFU, ZNF330 / Fold change vs veh, ZNF330 / RFU, GPN3 / Fold change vs veh, GPN3 / RFU, C9orf123 / Fold change vs veh, C9orf123 / RFU, N4BP2L2 / Fold change vs veh, N4BP2L2 / RFU, ARFIP1 / Fold change vs veh, ARFIP1 / RFU, FAM179B / Fold change vs veh, FAM179B / RFU, BCL10 / Fold change vs veh, BCL10 / RFU, UHRF1BP1L / Fold change vs veh, UHRF1BP1L / RFU, BET1 / Fold change vs veh, BET1 / RFU, CNOT2 / Fold change vs veh, CNOT2 / RFU, ZNF268 / Fold change vs veh, ZNF268 / Fold change vs veh, ZNF507 / RFU, DGCR2 / Fold change vs veh, DGCR2 / RFU, WDSUB1 / Fold change vs veh, WDSUB1 / Fold change vs veh, HSP90B1 /// MIR3652 / RFU, ADSS / Fold change vs veh, ADSS / RFU, GK / Fold change vs veh, GK / RFU, ZNF148 / Fold change vs veh, ZNF148 / RFU, TAF9 / Fold change vs veh, TAF9 / RFU, SLC1A5 / Fold change vs veh, SLC1A5 / RFU, SLMO2 / Fold change vs veh, SLMO2 / RFU, ABCC4 / Fold change vs veh, ABCC4 / RFU, LOC101060439 /// RAP1B / Fold change vs veh, LOC101060439 /// RAP1B / RFU, RFX7 / Fold change vs veh, RFX7 / RFU, GTPBP10 / Fold change vs veh, GTPBP10 / RFU, CNEP1R1 / Fold change vs veh, CNEP1R1 / RFU, BIVM-ERCC5 /// ERCC5 / Fold change vs veh, BIVM-ERCC5 /// ERCC5 / RFU, ILF3 / Fold change vs veh, ILF3 / RFU 11762660_at / Fold change /veh 11762660_at / RFU VCAN (11757783_s_at) / Fold change /veh VCAN (11757783_s_at) / RFU DDX43 (11728927_at) / Fold change /veh DDX43 (11728927_at) / RFU KRT8 (11758188_x_at) / Fold change /veh KRT8 (11758188_x_at) / RFU NKD1 (11759106_at) / Fold change /veh NKD1 (11759106_at) / RFU SRD5A1 (11742802_a_at) / Fold change /veh SRD5A1 (11742802_a_at) / RFU TPSAB1 /// TPSB2 (11721975_s_at) / Fold change /veh TPSAB1 /// TPSB2 (11721975_s_at) / RFU GSTM3 (11746129_a_at) / Fold change /veh GSTM3 (11746129_a_at) / RFU IL23R (11737362_x_at) / Fold change /veh IL23R (11737362_x_at) / RFU TMEM51 (11727254_a_at) / Fold change /veh TMEM51 (11727254_a_at) / RFU PIWIL2 (11732686_x_at) / Fold change /veh PIWIL2 (11732686_x_at) / RFU ORM1 (11744905_x_at) / Fold change /veh ORM1 (11744905_x_at) / RFU CCDC152 (11743942_at) / Fold change /veh CCDC152 (11743942_at) / RFU ECM1 (11717891_a_at) / Fold change /veh ECM1 (11717891_a_at) / RFU IL23R (11748794_a_at) / Fold change /veh IL23R (11748794_a_at) / RFU TNFAIP8L3 (11732012_x_at) / Fold change /veh TNFAIP8L3 (11732012_x_at) / RFU MBOAT4 (11741988_at) / Fold change /veh MBOAT4 (11741988_at) / RFU 11764193_at / Fold change /veh 11764193_at / RFU TMEM53 (11763286_at) / Fold change /veh TMEM53 (11763286_at) / RFU MAGEB2 (11727129_at) / Fold change /veh MAGEB2 (11727129_at) / RFU TMEM200A (11744735_a_at) / Fold change /veh TMEM200A (11744735_a_at) / RFU CCDC152 (11751479_a_at) / Fold change /veh CCDC152 (11751479_a_at) / RFU FAM211A (11726209_a_at) / Fold change /veh FAM211A (11726209_a_at) / RFU RGS16 (11746705_a_at) / Fold change /veh RGS16 (11746705_a_at) / RFU VCAN (11755009_s_at) / Fold change /veh VCAN (11755009_s_at) / RFU RHOB (11743442_s_at) / Fold change /veh RHOB (11743442_s_at) / RFU RGS16 (11720943_a_at) / Fold change /veh RGS16 (11720943_a_at) / RFU RGS16 (11720944_at) / Fold change /veh RGS16 (11720944_at) / RFU, VPS4B / Fold change vs veh, VPS4B / RFU, CREB1 / Fold change vs veh, CREB1 / RFU, DNAJC13 / Fold change vs veh, DNAJC13 / RFU, GNAQ / Fold change vs veh, GNAQ / RFU, CDK5R1 / Fold change vs veh, CDK5R1 / RFU, ZRANB3 / Fold change vs veh, ZRANB3 / RFU, CUL4A / Fold change vs veh, CUL4A / RFU, CCNY / Fold change vs veh, CCNY / RFU, UFL1 / Fold change vs veh, UFL1 / RFU, COG3 / Fold change vs veh, COG3 / RFU, DIAPH2 / Fold change vs veh, DIAPH2 / RFU, SKA2 / Fold change vs veh, SKA2 / RFU, AFF3 / Fold change vs veh, AFF3 / RFU, LMF1 / Fold change vs veh, LMF1 / RFU, IPO11 / Fold change vs veh, IPO11 / RFU, DFFB / Fold change vs veh, DFFB / RFU, FOXP1 / Fold change vs veh, FOXP1 / RFU, CARD8 / Fold change vs veh, CARD8 / RFU, STRN3 / Fold change vs veh, STRN3 / RFU, ADK / Fold change vs veh, ADK / RFU, RASSF2 / Fold change vs veh, RASSF2 / RFU, WIPF1 / Fold change vs veh, WIPF1 / RFU, LARP1B / Fold change vs veh, LARP1B / RFU, RASA1 / Fold change vs veh, RASA1 / RFU, RB1 / Fold change vs veh, RB1 / RFU, PPFIA1 / Fold change vs veh, PPFIA1 / RFU, MAT2A / Fold change vs veh, MAT2A / RFU, CCT5 / Fold change vs veh, CCT5 / RFU, WDR92 / Fold change vs veh, WDR92 / RFU, CUX1 / Fold change vs veh, CUX1 / RFU, TTC7A / Fold change vs veh, TTC7A / RFU, TMEM135 / Fold change vs veh, TMEM135 / RFU, DEPTOR / Fold change vs veh, DEPTOR / RFU, CPM / Fold change vs veh, CPM / RFU, DNAJB6 / Fold change vs veh, DNAJB6 / RFU, CACNA2D3 / Fold change vs veh, CACNA2D3 / RFU, DTX4 / Fold change vs veh, DTX4 / RFU, TFCP2 / Fold change vs veh, TFCP2 / RFU, GMCL1 /// GMCL1P1 / Fold change vs veh, GMCL1 /// GMCL1P1 / RFU, AEBP2 / Fold change vs veh, AEBP2 / RFU, SNHG1 /// SNORD22 /// SNORD25 /// SNORD26 /// SNORD27 /// SNORD28 /// SNORD29 /// SNORD31 / Fold change vs veh, SNHG1 /// SNORD22 /// SNORD25 /// SNORD26 /// SNORD27 /// SNORD28 /// SNORD29 /// SNORD31 / Fold change (Aza/veh), C12orf56 (ProbeSet 11735607_a_at) / Fold change (ACY-1035/veh), C12orf56 (ProbeSet 11735607_a_at) / Fold change (Aza/veh), FGFR1OP (ProbeSet 11751329_s_at) / Fold change (ACY-1035/veh), FGFR1OP (ProbeSet 11751329_s_at) / Fold change (Aza/veh), VPS36 (ProbeSet 11739960_a_at) / Fold change (ACY-1035/veh), VPS36 (ProbeSet 11739960_a_at) / RFU SYPL1 (11715823_x_at) / Fold change /veh SYPL1 (11715823_x_at) / RFU IGFBP7 (11715501_s_at) / Fold change /veh IGFBP7 (11715501_s_at) / RFU REEP3 (11722064_at) / Fold change /veh REEP3 (11722064_at) / RFU IGLL1 (11728026_x_at) / Fold change /veh IGLL1 (11728026_x_at): dose or concentration left out as unconfirmed
# Conditions: MV-4-11 cells, 48 hours
smiles,measurement,value
Nc1ccc(-c2cccs2)cc1NC(=O)c1ccc2c(c1)cc(C1CC1)n2CCN1CCOCC1 [ACY-1035],RFU 11762660_at,11.56 RFU
